How the values were obtained:
Test in all cases: KinomeScan kinase profiling
Type in all cases: binding
ASK1 = molecular target: T1, ASK1 (Homo sapiens, UniProt Q99683)
T1 construct: purchased Ambit Biosciences Corp (KinomeScan); host or cells: E. coli host derived from the BL21 strain, T7 phage
Excerpt: (§1) The kinases were ABL1(F317L), ABL1(H396P), ABL1(Q252H), ABL1(Y253F), ADCK3, ADCK4, ALK, ARK5, AXL, BLK, BRSK2, CDK7, CIT, CLK4, CSNK1D, CSNK1E, DAPK1, DAPK3, DCAMKL3, DMPK, EGFR, EGFR(E746-A750DEL), EGFR(G719C), EGFR(G719S), EGFR(L747-E749DEL, A750P), EGFR(L747-S752 DEL, P753S), EGFR(L747-T751DEL, Sin), EGFR(L858R), EGFR(L861Q), EGFR(S752-I759DEL), EPHA5, EPHA6, ERBB2, ERBB4, ERK3, ERK4, FGR, FLT3(D835H), FLT3(D835Y), FLT3(ITD), FLT3(N841 I), FRK, GAK, GCN2(KIN.DOM.2, S808G), HCK, IRAK3, JAK1(KIN.DOM.1), KIT, KIT(D816V), KIT(V559D), KIT(V559D,T670I), LCK, LOK, LTK, LYN, MAP3K3, MAP4K4, MAP4K5, MET, MINK, MKNK1, MKNK2, MST4, MYLK2, PDGFRB, PIM3, PKN2, PRKD1, PRKD2, PRKD3, PRKG1, RIPK2, RPS6KA4(KIN.DOM.2), SIK2, SLK, SNARK, SRC, STK36, TNIK, TNNI3K, TYK2(KIN.DOM.2).
(§2) Kinase assays: Assays were performed as described in Fabian et al. (2005) Nature Biotechnology, vol. 23, p. 329. Kinase-tagged T7 phage strains were grown in parallel in 24 or 96-well blocks in an E. coli host derived from the BL21 strain. E. coli were grown to log-phase and infected with T7 phage from a frozen stock (multiplicity of infection ˜0.1) and incubated with shaking at 32° C. until lysis (˜90 minutes). The lysates were centrifuged and filtered to remove cell debris. […] The liganded beads were blocked with excess biotin and washed with blocking buffer (SeaBlock (Pierce), 1% BSA, 0.05% Tween 20, 1 mM DTT) to remove unbound ligand and to reduce non-specific phage binding.
(§3) Test compounds were prepared as 40× stocks in DMSO and diluted into the aqueous environment. 2.5% DMSO was added to control assays lacking a test compound. All reactions were performed in polystyrene 96-well plates that had been pretreated with blocking buffer in a final volume of 0.04 ml. […] The phage titer in the eluates was measured by quantitative PCR.

AURKA = molecular target: T2, AURKA (Homo sapiens, UniProt O14965)
T2 construct: purchased Ambit Biosciences Corp (KinomeScan); host or cells: E. coli host derived from the BL21 strain, T7 phage
T2 sequence (O14965 whole entry): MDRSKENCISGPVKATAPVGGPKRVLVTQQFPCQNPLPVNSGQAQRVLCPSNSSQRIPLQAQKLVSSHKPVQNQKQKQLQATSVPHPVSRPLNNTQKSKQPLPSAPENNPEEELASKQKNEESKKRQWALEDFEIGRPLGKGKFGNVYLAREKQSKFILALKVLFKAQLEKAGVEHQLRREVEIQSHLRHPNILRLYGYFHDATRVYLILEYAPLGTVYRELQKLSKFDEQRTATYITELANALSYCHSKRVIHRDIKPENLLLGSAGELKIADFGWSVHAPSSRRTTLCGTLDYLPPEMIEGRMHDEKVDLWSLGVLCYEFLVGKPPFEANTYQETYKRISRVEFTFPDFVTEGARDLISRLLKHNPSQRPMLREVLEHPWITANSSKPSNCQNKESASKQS
Excerpt: as §1, §2, §3

DMPK = molecular target: T3, DMPK (Homo sapiens, UniProt Q09013)
T3 construct: purchased Ambit Biosciences Corp (KinomeScan); host or cells: T7 phage in E. coli host derived from BL21
T3 sequence (Q09013 whole entry): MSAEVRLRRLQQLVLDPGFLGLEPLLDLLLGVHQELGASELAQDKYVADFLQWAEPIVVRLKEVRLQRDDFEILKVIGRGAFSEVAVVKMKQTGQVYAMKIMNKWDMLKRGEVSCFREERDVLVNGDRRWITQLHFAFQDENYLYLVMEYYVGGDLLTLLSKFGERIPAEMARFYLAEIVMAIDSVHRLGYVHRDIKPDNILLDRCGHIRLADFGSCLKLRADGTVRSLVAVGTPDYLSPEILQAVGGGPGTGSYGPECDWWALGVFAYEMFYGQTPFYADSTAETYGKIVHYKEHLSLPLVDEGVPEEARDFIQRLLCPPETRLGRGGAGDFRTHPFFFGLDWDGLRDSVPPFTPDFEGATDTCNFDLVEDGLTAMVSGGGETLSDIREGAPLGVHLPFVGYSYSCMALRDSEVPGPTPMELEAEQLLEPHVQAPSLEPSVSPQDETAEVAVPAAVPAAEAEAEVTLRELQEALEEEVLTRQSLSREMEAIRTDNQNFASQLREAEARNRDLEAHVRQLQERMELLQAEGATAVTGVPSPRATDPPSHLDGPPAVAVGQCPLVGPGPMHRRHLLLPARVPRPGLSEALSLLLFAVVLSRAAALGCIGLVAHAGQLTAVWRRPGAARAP
Excerpt: as §1, §2, §3

DRAK2 = molecular target: T4, DRAK2 (Homo sapiens, UniProt O94768)
T4 construct: purchased Ambit Biosciences Corp (KinomeScan); host or cells: T7 phage in E. coli host derived from BL21
T4 sequence (O94768 whole entry): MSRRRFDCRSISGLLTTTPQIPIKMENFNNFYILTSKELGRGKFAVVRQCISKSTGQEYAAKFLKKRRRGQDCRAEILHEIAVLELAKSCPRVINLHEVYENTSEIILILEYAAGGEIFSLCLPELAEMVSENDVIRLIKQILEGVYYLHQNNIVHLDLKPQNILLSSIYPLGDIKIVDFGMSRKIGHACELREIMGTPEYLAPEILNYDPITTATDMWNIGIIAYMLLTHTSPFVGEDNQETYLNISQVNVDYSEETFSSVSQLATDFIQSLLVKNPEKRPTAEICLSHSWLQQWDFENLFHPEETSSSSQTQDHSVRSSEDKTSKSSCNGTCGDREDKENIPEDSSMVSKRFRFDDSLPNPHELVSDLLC
Excerpt: as §1, §2, §3

EPHB2 = molecular target: T5, EPHB2 (Homo sapiens, UniProt P29323)
T5 construct: host or cells: E. coli host derived from BL21, T7 phage lysate
Excerpt: as §1, §2, §3

FER = molecular target: T6, FER (Homo sapiens, UniProt P16591)
T6 construct: host or cells: E. coli host derived from BL21, infected with T7 phage
Excerpt: as §1, §2, §3

GCN2 (Kin.Dom.2.S808G) = molecular target: T7, GCN2 (Kin.Dom.2.S808G) (Homo sapiens, UniProt Q9P2K8, S808G)
T7 construct: GCN2(KIN.DOM.2, S808G); host or cells: E. coli host derived from BL21, infected with T7 phage
T7 sequence (Q9P2K8 590-1001 S808G limits assumed): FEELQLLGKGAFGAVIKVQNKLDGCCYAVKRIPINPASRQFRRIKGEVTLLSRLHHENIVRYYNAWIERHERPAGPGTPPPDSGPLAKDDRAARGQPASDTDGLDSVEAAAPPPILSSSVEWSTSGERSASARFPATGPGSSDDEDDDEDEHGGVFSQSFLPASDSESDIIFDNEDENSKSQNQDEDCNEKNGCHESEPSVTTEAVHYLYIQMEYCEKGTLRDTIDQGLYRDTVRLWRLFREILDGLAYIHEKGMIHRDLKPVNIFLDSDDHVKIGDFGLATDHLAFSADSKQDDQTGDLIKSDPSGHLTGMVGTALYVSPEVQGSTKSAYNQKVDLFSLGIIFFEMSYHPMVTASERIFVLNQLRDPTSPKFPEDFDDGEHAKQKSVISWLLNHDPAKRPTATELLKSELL
Excerpt: as §1, §2, §3

IGF1R = molecular target: T8, IGF1R (Homo sapiens, UniProt P08069)
T8 construct: host or cells: T7 phage in E. coli host derived from BL21
Excerpt: as §1, §2, §3

[1] = molecular target: T9, JAK2 (JH1domain-catalytic) (Homo sapiens, UniProt O60674)
T9 construct: JAK2 (JH1domain-catalytic); host or cells: T7 phage in E. coli host derived from BL21
T9 sequence (O60674 849-1124 limits assumed): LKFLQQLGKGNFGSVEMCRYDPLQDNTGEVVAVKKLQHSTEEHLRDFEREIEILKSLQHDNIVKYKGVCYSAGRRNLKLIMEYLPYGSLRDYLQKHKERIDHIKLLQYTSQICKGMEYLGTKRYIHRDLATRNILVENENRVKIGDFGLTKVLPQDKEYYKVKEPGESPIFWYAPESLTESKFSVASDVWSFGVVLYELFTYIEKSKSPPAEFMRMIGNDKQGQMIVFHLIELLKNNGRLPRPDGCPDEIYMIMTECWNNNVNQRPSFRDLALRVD
Excerpt: as §1, §2, §3

MAP4K3 = molecular target: T10, MAP4K3 (Homo sapiens, UniProt Q8IVH8)
T10 construct: host or cells: E. coli derived from BL21, infected with T7 phage
Excerpt: as §1, §2, §3

MEK4 = molecular target: T11, MEK4 (Homo sapiens, UniProt P45985)
T11 construct: host or cells: E. coli derived from BL21, infected with T7 phage
Excerpt: as §1, §2, §3

MLCK = molecular target: T12, MLCK (Homo sapiens, UniProt Q32MK0)
T12 construct: host or cells: T7 phage in E. coli host derived from BL21
T12 sequence (Q32MK0 whole entry): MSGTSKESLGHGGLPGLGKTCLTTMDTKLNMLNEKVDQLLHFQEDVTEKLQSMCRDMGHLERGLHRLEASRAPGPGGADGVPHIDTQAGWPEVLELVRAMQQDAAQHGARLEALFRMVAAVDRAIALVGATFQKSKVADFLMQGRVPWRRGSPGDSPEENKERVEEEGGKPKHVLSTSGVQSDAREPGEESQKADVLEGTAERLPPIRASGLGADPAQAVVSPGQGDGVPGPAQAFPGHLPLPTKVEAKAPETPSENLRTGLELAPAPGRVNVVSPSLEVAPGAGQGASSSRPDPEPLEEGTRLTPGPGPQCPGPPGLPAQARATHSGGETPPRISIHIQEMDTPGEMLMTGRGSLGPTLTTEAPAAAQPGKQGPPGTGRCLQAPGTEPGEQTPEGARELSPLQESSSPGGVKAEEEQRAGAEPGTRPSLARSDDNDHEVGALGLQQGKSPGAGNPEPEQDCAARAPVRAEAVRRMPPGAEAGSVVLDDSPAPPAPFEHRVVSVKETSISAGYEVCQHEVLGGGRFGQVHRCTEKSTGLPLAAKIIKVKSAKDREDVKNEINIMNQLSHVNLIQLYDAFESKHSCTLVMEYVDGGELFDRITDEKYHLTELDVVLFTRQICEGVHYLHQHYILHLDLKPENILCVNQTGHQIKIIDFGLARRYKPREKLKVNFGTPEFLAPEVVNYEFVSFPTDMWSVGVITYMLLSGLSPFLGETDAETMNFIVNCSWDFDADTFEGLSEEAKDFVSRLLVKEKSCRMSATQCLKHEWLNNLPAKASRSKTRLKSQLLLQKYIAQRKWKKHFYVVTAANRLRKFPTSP
Excerpt: as §1, §2, §3

MST2 = molecular target: T13, MST2 (Homo sapiens, UniProt Q13188)
T13 construct: host or cells: T7 phage in E. coli host derived from BL21
Excerpt: as §1, §2, §3

NEK1 = molecular target: T14, NEK1 (Homo sapiens, UniProt Q96PY6)
T14 construct: host or cells: T7 phage in E. coli host derived from BL21
T14 sequence (Q96PY6 whole entry): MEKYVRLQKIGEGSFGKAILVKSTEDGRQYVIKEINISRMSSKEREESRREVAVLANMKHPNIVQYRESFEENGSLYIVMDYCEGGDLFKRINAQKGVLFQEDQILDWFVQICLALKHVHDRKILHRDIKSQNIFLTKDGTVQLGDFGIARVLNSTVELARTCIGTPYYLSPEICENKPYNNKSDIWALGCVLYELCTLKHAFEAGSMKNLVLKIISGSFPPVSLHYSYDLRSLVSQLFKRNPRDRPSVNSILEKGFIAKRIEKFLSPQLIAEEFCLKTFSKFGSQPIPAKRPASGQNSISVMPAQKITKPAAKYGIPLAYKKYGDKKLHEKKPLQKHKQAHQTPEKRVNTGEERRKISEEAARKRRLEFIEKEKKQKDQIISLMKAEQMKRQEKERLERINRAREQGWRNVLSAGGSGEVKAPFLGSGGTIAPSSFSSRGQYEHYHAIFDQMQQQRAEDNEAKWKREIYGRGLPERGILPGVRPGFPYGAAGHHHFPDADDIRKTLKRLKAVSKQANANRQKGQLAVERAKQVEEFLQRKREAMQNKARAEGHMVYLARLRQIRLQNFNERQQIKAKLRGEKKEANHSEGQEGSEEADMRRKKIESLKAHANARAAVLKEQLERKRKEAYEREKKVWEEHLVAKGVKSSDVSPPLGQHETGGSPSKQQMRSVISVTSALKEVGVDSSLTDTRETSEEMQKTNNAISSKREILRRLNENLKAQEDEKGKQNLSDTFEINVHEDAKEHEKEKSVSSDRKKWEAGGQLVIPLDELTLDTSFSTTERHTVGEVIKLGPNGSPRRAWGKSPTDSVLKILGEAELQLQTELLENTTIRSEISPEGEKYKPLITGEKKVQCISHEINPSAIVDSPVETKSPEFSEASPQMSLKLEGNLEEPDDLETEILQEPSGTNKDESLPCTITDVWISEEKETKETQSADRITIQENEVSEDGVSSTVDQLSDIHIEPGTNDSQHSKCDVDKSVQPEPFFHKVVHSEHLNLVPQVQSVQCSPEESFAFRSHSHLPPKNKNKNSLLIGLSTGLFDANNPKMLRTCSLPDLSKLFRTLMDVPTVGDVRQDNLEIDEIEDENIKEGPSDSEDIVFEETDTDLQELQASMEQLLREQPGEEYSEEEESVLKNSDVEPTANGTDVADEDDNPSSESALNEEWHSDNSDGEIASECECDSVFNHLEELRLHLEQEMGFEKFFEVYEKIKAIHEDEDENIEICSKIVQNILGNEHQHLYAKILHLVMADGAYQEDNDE
Excerpt: as §1, §2, §3

PIK3C2B = molecular target: T15, PIK3C2B (Homo sapiens, UniProt O00750)
T15 construct: host or cells: E. coli host derived from the BL21 strain, infected with T7 phage
Excerpt: as §1, §2, §3

PIK3CA = molecular target: T16, PIK3CA (Homo sapiens, UniProt P42336)
T16 construct: host or cells: E. coli host derived from the BL21 strain, infected with T7 phage
Excerpt: as §1, §2, §3

PIM1 = molecular target: T17, PIM1 (Homo sapiens, UniProt P11309)
T17 construct: purchased Ambit Biosciences Corp (KinomeScan); host or cells: E. coli host derived from BL21, infected with T7 phage
Excerpt: as §1, §2, §3

PRKCQ = molecular target: T18, PRKCQ (Homo sapiens, UniProt Q04759)
T18 construct: purchased Ambit Biosciences Corp (KinomeScan); host or cells: E. coli host derived from BL21, infected with T7 phage
Excerpt: as §1, §2, §3

PRKD3 = molecular target: T19, PRKD3 (Homo sapiens, UniProt O94806)
T19 construct: purchased Ambit Biosciences Corp (KinomeScan); host or cells: E. coli host derived from BL21, infected with T7 phage
Excerpt: as §1, §2, §3

TYRO3 = molecular target: T20, TYRO3 (Homo sapiens, UniProt Q06418)
T20 construct: purchased Ambit Biosciences Corp (KinomeScan); host or cells: E. coli host derived from the BL21 strain (T7 phage lysate)
Excerpt: as §1, §2, §3

ZAK = molecular target: T21, ZAK (Homo sapiens, UniProt Q9NYL2)
T21 construct: host or cells: E. coli host derived from the BL21 strain, infected with T7 phage
Excerpt: as §1, §2, §3

ZAP70 = molecular target: T22, ZAP70 (Homo sapiens, UniProt P43403)
T22 construct: host or cells: E. coli host derived from the BL21 strain, infected with T7 phage
T22 sequence (P43403 whole entry): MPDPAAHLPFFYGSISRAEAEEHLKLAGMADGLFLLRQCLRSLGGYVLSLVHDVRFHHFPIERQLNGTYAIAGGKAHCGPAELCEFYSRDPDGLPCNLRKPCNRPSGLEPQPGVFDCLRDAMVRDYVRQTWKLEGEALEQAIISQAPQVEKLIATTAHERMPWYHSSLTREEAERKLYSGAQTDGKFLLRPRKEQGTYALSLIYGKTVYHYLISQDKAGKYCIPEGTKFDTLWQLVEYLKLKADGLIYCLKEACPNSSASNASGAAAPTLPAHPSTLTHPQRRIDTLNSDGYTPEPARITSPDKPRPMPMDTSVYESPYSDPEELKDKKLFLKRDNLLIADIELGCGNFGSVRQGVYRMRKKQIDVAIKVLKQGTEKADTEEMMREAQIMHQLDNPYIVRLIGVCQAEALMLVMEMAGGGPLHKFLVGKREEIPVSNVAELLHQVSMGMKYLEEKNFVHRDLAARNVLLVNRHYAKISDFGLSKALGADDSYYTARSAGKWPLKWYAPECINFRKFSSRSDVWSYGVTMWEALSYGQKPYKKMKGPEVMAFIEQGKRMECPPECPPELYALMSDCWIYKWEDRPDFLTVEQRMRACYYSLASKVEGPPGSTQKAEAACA
Excerpt: as §1, §2, §3

C#Cc1cccc(Nc2ncnc3cc(OC)c(OCCCN4CCOCC4)cc23)c1 [NRC-2694, N-(3-ethylnylphenyl)-7-methoxy-6-[3-(4-morpholinyl)propoxy]-4-quinazolinamine]
% Ctrl @ 10000 nM (ASK1): 100 % Ctrl
% Ctrl @ 10000 nM (AURKA): 100 % Ctrl
% Ctrl @ 10000 nM (DMPK): 6.8 % Ctrl
% Ctrl @ 10000 nM (DRAK2): 58 % Ctrl
% Ctrl @ 10000 nM (EPHB2): 83 % Ctrl
% Ctrl @ 10000 nM (FER): 94 % Ctrl
% Ctrl @ 10000 nM (GCN2 (Kin.Dom.2.S808G)): 12 % Ctrl
% Ctrl @ 10000 nM (IGF1R): 74 % Ctrl
% Ctrl @ 10000 nM [1]: 38 % Ctrl
% Ctrl @ 10000 nM (MAP4K3): 52 % Ctrl
% Ctrl @ 10000 nM (MEK4): 92 % Ctrl
% Ctrl @ 10000 nM (MLCK): 77 % Ctrl
% Ctrl @ 10000 nM (MST2): 85 % Ctrl
% Ctrl @ 10000 nM (NEK1): 66 % Ctrl
% Ctrl @ 10000 nM (PIK3C2B): 93 % Ctrl
% Ctrl @ 10000 nM (PIK3CA): 100 % Ctrl
% Ctrl @ 10000 nM (PIM1): 39 % Ctrl
% Ctrl @ 10000 nM (PRKCQ): 83 % Ctrl
% Ctrl @ 10000 nM (PRKD3): 7.2 % Ctrl
% Ctrl @ 10000 nM (TYRO3): 42 % Ctrl
% Ctrl @ 10000 nM (ZAK): 74 % Ctrl
% Ctrl @ 10000 nM (ZAP70): 100 % Ctrl
